From paper PMC4941764, “Identification of 4-aminoquinoline core for the design of new cholinesterase inhibitors” (PeerJ, 2016)

Molecular target: T1, acetylcholinesterase (eeAChE) (Electrophorus electricus, UniProt O42275)
T1 construct: gene ache
Experiment: Ellman assay, single concentration ([…])
Assay type: biochemical

T1 sequence (O42275 24-633): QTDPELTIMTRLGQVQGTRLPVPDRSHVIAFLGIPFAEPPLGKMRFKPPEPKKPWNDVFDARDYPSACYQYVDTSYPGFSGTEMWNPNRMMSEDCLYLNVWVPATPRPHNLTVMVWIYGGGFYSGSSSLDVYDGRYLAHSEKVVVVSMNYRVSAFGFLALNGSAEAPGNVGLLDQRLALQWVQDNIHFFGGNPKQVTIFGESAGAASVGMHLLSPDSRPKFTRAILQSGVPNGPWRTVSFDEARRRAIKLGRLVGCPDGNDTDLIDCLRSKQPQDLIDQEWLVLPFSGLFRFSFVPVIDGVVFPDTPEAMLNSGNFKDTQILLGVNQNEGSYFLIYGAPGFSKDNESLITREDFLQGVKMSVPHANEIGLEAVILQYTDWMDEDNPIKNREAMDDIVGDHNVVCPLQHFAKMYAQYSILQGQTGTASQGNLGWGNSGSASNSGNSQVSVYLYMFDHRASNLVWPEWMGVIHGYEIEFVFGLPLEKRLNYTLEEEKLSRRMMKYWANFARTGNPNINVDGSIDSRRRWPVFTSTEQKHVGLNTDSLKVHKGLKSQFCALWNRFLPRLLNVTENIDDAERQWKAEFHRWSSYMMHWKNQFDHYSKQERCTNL

Molecule Nc1ccnc2ccccc12 [compound 03, 4-aminoquinoline] has an inhibition at 10 µM of 68.3 ± 1.83%.
